Test results as given in PubChem BioAssay (NCI).
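Five concentrations, 48 hours, 96-well plates. GI50 is the concentration that inhibits growth by half. TGI is the concentration that stops growth completely.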

How the values were obtained:
Test in all cases: NCI tumour cell line growth inhibition, 48 h
HCT-116 colon = tested on: HCT-116 colon
DMS 114 small cell lung = tested on: DMS 114 small cell lung
SK-MEL-2 melanoma = tested on: SK-MEL-2 melanoma
HOP-92 NSCLC = tested on: HOP-92 NSCLC
UACC-257 melanoma = tested on: UACC-257 melanoma
COLO 205 colon = tested on: COLO 205 colon
EKVX NSCLC = tested on: EKVX NSCLC
SNB-75 CNS = tested on: SNB-75 CNS
OVCAR-8 ovarian = tested on: OVCAR-8 ovarian
LXFL 529 NSCLC = tested on: LXFL 529 NSCLC

SMILES	TGI (HCT-116 colon) [µM]	TGI (DMS 114 small cell lung) [µM]	TGI (SK-MEL-2 melanoma) [µM]	TGI (HOP-92 NSCLC) [µM]	TGI (UACC-257 melanoma) [µM]	TGI (COLO 205 colon) [µM]	TGI (EKVX NSCLC) [µM]	TGI (SNB-75 CNS) [µM]	TGI (OVCAR-8 ovarian) [µM]	TGI (LXFL 529 NSCLC) [µM]	GI50 (HCT-116 colon) [µM]	GI50 (DMS 114 small cell lung) [µM]	GI50 (SK-MEL-2 melanoma) [µM]	GI50 (UACC-257 melanoma) [µM]	GI50 (COLO 205 colon) [µM]	GI50 (EKVX NSCLC) [µM]	GI50 (SNB-75 CNS) [µM]	GI50 (LXFL 529 NSCLC) [µM]
CS(=O)c1ccc(COP(N)(=O)N(CCCl)CCCl)cc1 (stereo unspecified)	> 100	> 100	> 100	> 100	> 100	> 100	> 100	> 100	> 100	> 100	–	–	–	–	–	–	–	–
CCOC(=O)CC1=CSC2=NCCN12	> 100	> 100	> 100	> 100	> 100	> 100	> 100	> 100	> 100	> 100	–	–	–	–	–	–	–	–
Cc1c2cc[nH]c(=O)c2cc2c(=O)c3cnccc3[nH]c12	> 100	> 100	> 100	> 100	> 100	> 100	> 100	> 100	> 100	> 100	–	–	–	–	–	–	–	–
CCOC(=O)C(C)c1cc(C2(C)OCCO2)c(C)o1 (stereo unspecified)	> 100	> 100	> 100	97.7	–	> 100	> 100	> 100	> 100	> 100	–	–	–	–	–	–	–	–
COC(=O)c1c(CC#N)cccc1CC#N	> 100	> 100	> 100	> 100	> 100	> 100	> 100	> 100	> 100	> 100	–	–	–	–	–	–	–	–
ON=C1CCC(c2ccccc2)CC1 (stereo unspecified)	> 100	> 100	> 100	> 100	> 100	> 100	> 100	> 100	> 100	> 100	–	–	–	–	–	–	–	–
Nc1c(-c2nc3ccccc3[nH]2)sc(=S)n1-c1ccccc1	> 100	> 100	> 100	> 100	> 100	> 100	> 100	> 100	> 100	> 100	–	–	–	–	–	–	–	–
COc1ccc(/C=C2/C[N+](C)(C)C/C(=C/c3ccc(OC)cc3)C2=O)cc1	> 100	> 69.3	71.7	> 100	> 100	40.8	> 100	> 100	> 100	> 100	–	–	–	–	–	–	–	–
CC1=Cc2cc3[n-]c(cc4nc(cc5[n-]c(cc1n2)cc5C)C(C)=C4CCC(=O)O)c(CCC(=O)O)c3C.[Pd+2]	41.4	11.2	44	> 23.8	29.3	41.6	> 54.6	29.9	–	11.1	24.1	3.18	18.7	10.8	16.8	> 28.9	6.8	2.86
C[C@]12CCC(=O)C(O)=C1CC[C@@H]1[C@@H]2CC[C@]2(C)C(=O)CC[C@@H]12	> 100	> 100	> 100	> 100	> 100	> 100	> 100	> 100	> 100	> 100	–	–	–	–	–	–	–	–
CCOC(CN=c1nc(N(C)C)ss1)OCC	31.2	32.9	48.9	36	40.7	7.28	> 80	78.4	46.7	20.5	–	–	–	–	–	–	–	–
CCOC(=O)C1C(=O)c2ccccc2CN1Cc1ccccc1 (stereo unspecified)	> 100	> 100	> 100	> 100	> 100	> 100	> 100	> 100	> 100	> 100	–	–	–	–	–	–	–	–
CC1(C)OCC(CO)(Nc2nc(N3CC3)nc(N3CC3)n2)CO1	27.5	27.2	40	51.5	45.1	60.9	90.8	33.1	33.1	> 100	–	–	–	–	–	–	–	–
CC(=O)OCC1OC(n2c(=O)n(-c3ccccc3)c(=O)c3ccccc32)C(OC(C)=O)C(OC(C)=O)C1OC(C)=O (stereo unspecified)	> 100	> 100	> 100	> 100	> 100	> 100	> 100	> 100	> 100	> 100	–	–	–	–	–	–	–	–
CN(c1ccccc1)C(c1ccccc1)C(O)c1ccccc1 (stereo unspecified)	33.7	47.5	31.8	47.8	35.6	30.1	62.7	64.4	36	43.4	–	–	–	–	–	–	–	–
c1ccc(N=C2c3ccccc3C3=NCCCN32)cc1	> 100	> 100	> 100	72.2	> 100	> 100	> 100	> 100	> 100	> 100	–	–	–	–	–	–	–	–
COC(=O)C1=C(O)C(O)=C(C(=O)OC)C1	> 100	> 100	> 100	> 100	> 100	> 100	> 100	> 100	> 100	> 100	–	–	–	–	–	–	–	–
O=C(O)C12C3CCCC1C2CC3 (stereo unspecified)	> 100	> 100	> 100	> 100	> 100	> 100	> 100	> 100	> 100	> 100	–	–	–	–	–	–	–	–
O=C1OC2(c3ccccc3Oc3ccccc32)c2ccccc21	> 100	> 100	> 100	> 100	> 100	> 100	> 100	> 100	> 100	> 100	–	–	–	–	–	–	–	–
